How the values were obtained:
HDAC1 = HDAC1 (Homo sapiens (Human), UniProt Q13547); assay: HDAC enzyme inhibition assay (Fluor-de-Lys), HDAC1; format: biochemical; details: 2 hours pre-incubation
Procedure: (§1) The HDAC activity inhibition assay was performed as follows to determine the ability of a test compound to inhibit HDAC enzymatic activity. Serial dilutions of HDAC inhibitors were prepared in HDAC assay buffer (25 mM Tris/HCl, pH 8.0, 137 mM NaCl, 2.7 mM KCl, 1 mM MgCl2, pH 8) in 96-well assay plates (Fisher scientific, #07-200-309) and were pre-incubated for 2 hours at room temperature in the presence of 125 μg/ml BSA and purified HDAC1 (BPS Bioscience, San Diego, Calif., #50051), HDAC2 (BPS Bioscience, #50053), or HDAC3/NcoR2 (BPS Bioscience, #50003) at concentrations of 1.25, 1.32, and 0.167 μg/mL, respectively. Following pre-incubation, Fluor-de-Lys™ substrate (Enzo Life Sciences, Plymouth Meeting, Pa., BML-KI104-0050) was added to a final concentration of 10 μM and plates were further incubated for 30 minutes at room temperature. The enzymatic reaction was stopped by addition of Trichostatin A (Sigma-Aldrich, St Louis, Mo., #T8552, final concentration: 100 nM) and trypsin (MP Biomedicals, Solon, Ohio, #02101179) was added to reach a final concentration of 100 μg/mL. After a 15 minute incubation at room temperature, fluorescence was recorded using a Spectramax M2 fluorometer (Molecular Devices, Sunnyvale, Calif.) with excitation at 365 nm and emission at 460 nm. IC50 values were calculated by using a sigmoidal dose-response (variable slope) equation in GraphPad Prism® 5 for Windows (GraphPad Software, La Jolla, Calif.). Results for selected compounds in the HDAC activity inhibition assay are presented in Table 5 (IC50 ranges: IA>20 μM, A<1 μM, 1<B<5 μM, 5<C<10 μM, 10<D<20 μM, ND: not determined).

HDAC3/NcoR2 = HDAC3/NcoR2 (Homo sapiens (Human), UniProt O15379); assay: HDAC enzyme inhibition assay (Fluor-de-Lys), HDAC3/NcoR2; format: biochemical; details: HDAC3/NcoR2, 2 hours pre-incubation
Sequence of HDAC3/NcoR2 (O15379 whole entry): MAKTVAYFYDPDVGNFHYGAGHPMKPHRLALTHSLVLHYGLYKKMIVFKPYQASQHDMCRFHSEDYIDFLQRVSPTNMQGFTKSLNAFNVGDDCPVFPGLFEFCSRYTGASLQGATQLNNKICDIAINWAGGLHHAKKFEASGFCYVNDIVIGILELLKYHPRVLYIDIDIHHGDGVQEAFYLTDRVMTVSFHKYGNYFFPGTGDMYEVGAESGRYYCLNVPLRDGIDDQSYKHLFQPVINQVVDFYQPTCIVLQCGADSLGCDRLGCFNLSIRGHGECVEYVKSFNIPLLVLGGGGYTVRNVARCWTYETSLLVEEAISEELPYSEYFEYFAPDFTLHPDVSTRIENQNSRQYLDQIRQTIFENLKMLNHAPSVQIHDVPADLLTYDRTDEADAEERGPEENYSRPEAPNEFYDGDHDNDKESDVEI
Sequence of HDAC3/NcoR2 (Q9Y618 395-489 partner): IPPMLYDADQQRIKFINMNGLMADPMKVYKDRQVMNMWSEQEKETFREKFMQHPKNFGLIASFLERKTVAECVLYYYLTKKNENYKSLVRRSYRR
Procedure: as §1

[1] = system: GM 15850 (lymphoblastoid cells line) cells; assay: In-cell deacetylase inhibition assay (DAC assay); format: cell-based; details: Homo sapiens, GM15850; GM 15850 cells, 4 h incubation
Procedure: GM 15850 (lymphoblastoid cells line) cells were seeded in 96-well plates at an appropriate density (100,000 cells/well) in 90 μL, RPMI1640 medium containing 10% v/v fetal bovine serum (FBS), 1% v/v penicillin/streptomycin, and 1% v/v L-glutamine. Compound dilutions were made in 100% DMSO followed by parallel dilution in media with 2% DMSO. 10 μl of the compound dilutions were added to the cells to achieve the desired concentrations. The final concentration of DMSO in each well was 0.2%. The cells were incubated for 4 h at 37° C. with 5% CO2. After incubation, the cells were centrifuged down and the supernatant was removed. The cell pellets were washed with 100 μL, phosphate-buffered saline (PBS) and then lysed with 45 μL, lysis buffer (HDAC assay buffer at pH 8.0 (25 mM Tris/HCl, 137 mM NaCl, 2.7 mM KCl, 1 mM MgCl2)+1% v/v Igepal CA-630). To initiate the reaction, the HDAC substrate KI-104 (Enzo Life Sciences, Farmingdale, N.Y.) was added to a final concentration of 50 μM. The reaction was stopped after 30 min incubation by addition of 50 μL, developer (6 mg/mL trypsin in HDAC assay buffer). The reaction was allowed to develop for 30 min at room temperature and the fluorescence signal was detected using a fluorometer (Spectramax M2, Molecular Devices, Sunnyvale, Calif.) with excitation and emission wavelengths of 360 nm and 470 nm respectively. The data was fitted to a sigmoidal dose response equation with variable slope in GraphPad Prism 5.0 (GraphPad Software, La Jolla, Calif.) to determine IC50. Bottom and top of the curve were fixed to the average fluorescence response of control wells with no cells and cells but no compound respectively. IC50's are reported in Table 5, where A stands for IC50 less than 1 μM, B between 1 and 5 μM, C from 5 to 10 μM, D from 10 to 20 μM, and IA for IC50 above 20 μM.

Sequence of HDAC1 (Q13547 whole entry): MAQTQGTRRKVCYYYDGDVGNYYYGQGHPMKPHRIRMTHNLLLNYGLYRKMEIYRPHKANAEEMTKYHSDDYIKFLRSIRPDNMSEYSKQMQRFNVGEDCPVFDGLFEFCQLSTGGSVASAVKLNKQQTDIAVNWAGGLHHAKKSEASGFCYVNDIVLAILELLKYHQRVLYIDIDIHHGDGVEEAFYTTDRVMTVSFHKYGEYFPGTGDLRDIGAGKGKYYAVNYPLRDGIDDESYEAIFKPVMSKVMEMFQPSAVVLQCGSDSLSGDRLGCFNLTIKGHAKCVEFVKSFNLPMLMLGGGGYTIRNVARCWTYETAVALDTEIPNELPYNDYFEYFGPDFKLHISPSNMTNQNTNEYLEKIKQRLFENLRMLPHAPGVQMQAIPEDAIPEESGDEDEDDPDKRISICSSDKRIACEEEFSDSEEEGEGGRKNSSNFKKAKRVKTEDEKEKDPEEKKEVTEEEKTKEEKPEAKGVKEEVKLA

Row | SMILES | IC50 (HDAC1) | IC50 (HDAC3/NcoR2) | IC50 [1]
1 | Nc1ccccc1NC(=O)c1ccc2c(cnn2Cc2cccnc2)c1 [Compound A1] | < 1000 nM | < 1000 nM | < 1000 nM
2 | Nc1cc(F)ccc1NC(=O)c1ccc2c(cnn2Cc2cncc(F)c2)c1 [Compound A7] | < 1000 nM | < 1000 nM | 1000 to 5000 nM
3 | Nc1ccccc1NC(=O)c1ccc2c(cnn2Cc2ccc(F)c(F)c2)c1 [Compound A9] | < 1000 nM | < 1000 nM | 
4 | Cc1ccc(Cn2cc3cc(C(=O)Nc4ccccc4N)ccc3n2)c(C)n1 [Compound A15] | < 1000 nM | < 1000 nM | < 1000 nM
5 | Cn1cc(Cn2ncc3cc(C(=O)Nc4ccccc4N)ccc32)cn1 [Compound A3] | < 1000 nM | < 1000 nM | < 1000 nM
6 | Nc1cc(F)ccc1NC(=O)c1ccc2c(cnn2Cc2cccnc2)c1 [Compound A6] | < 1000 nM | < 1000 nM | 1000 to 5000 nM
7 | Nc1ccccc1NC(=O)c1ccc2c(cnn2Cc2cncc(F)c2)c1 [Compound A4, N-(2-aminophenyl)-1-((5-fluoropyridin-3-yl)methyl)-1H-indazole-5-carboxamide] | < 1000 nM | < 1000 nM | < 1000 nM
8 | Nc1ccccc1NC(=O)c1ccc2nn(Cc3cncc(F)c3)cc2c1 [Compound A14, N-(2-aminophenyl)-2-((5-fluoropyridin-3-yl)methyl)-2H-indazole-5-carboxamide] | < 1000 nM | < 1000 nM | < 1000 nM
9 | Cc1ccc(Cn2ncc3cc(C(=O)Nc4ccc(F)cc4N)ccc32)c(C)n1 [Compound A8] | < 1000 nM | < 1000 nM | 1000 to 5000 nM
10 | Nc1ccccc1NC(=O)c1ccc2c(cnn2Cc2ccccc2)c1 [Compound A2] | < 1000 nM | < 1000 nM | < 1000 nM
11 | Nc1ccccc1NC(=O)c1ccc2nn(Cc3cccnc3)cc2c1 [Compound A13] | < 1000 nM | < 1000 nM | < 1000 nM
12 | Cc1ccc(Cn2ncc3cc(C(=O)Nc4ccccc4N)ccc32)c(C)n1 [Compound A5] | < 1000 nM | < 1000 nM | < 1000 nM
13 | Nc1cc(F)ccc1NC(=O)c1ccc2c(cnn2CC2CC2)c1 [Compound A12] | 1000 to 5000 nM | < 1000 nM | > 20000 nM

— patent US10428028B2, “HDAC inhibitors” (BIOMARIN PHARMACEUTICAL INC., priority 2013, dated 2019)
